Test results as given in patent publication US20040062743A1, “Acid-containing desensitization agents for teeth” (priority 2002, published 2004).

Columns and labels:
[1] = test system: horse serum diluted with physiological common-salt solution, 2 mM CaCl2 (simulated dentinal fluid); assay: Measurement of the protein precipitation (weight of dried precipitate); format: biochemical; conditions: for Precipitate: average of 5 measurements
Procedure: Furthermore, acids which also have calcium-precipitating properties in addition to protein-precipitating properties are particularly preferred. Protein and calcium-precipitating properties are detected in standardized tests. Protein precipitation is measured as described in Example 6, the acids to be examined in the solution described in Example 5 (2nd component) being present in a concentration of 0.2 M. The acid-containing solution is mixed with the protein solution described in Example 6 and the mass of the obtained precipitate is determined. According to the invention, acids which yield a pellet weight of >25 mg, preferably >30 mg and in particular >40 mg are preferred. The upper limit of the pellet weight is determined by the masses of the components used. Acids which yield a quantitative precipitation under the described conditions are particularly suitable according to the invention.
Furthermore, CaCl2 (2 mM) was added to the diluted protein solution in order to adjust the calcium-ion concentration to that of dentinal fluid.
500 μl of the protein solution was then reacted with […] of the composition to be tested and the mixture was left to stand for 30 minutes at room temperature, centrifuged and the obtained precipitates dried at 75° C. and weighed.
For protein precipitation, the solution (2nd component) described in Example 5 was used which was reacted with phosphonic acid in concentrations of 10 mM to 200 mM (cf. Table 1). 5 precipitations per concentration were carried out and then the average of the determinations was calculated.

In the case of `C=C(COCCP(=O)(O)O)C(=O)O` [Example 1, 2-[4-(dihydroxyphosphoryl)-2-oxa-butyl]-acrylic acid], the “Protein precipitation (in words)” value ([1]; 150 mM acid) is reported as “quantitative”, the Precipitate ([1]; acid concentration 10 mM in solution (2nd component) of Example 5) is reported as 55.3 mg and the Precipitate ([1]; acid concentration 25 mM in solution (2nd component) of Example 5) is reported as 58.2 mg. For the same compound, the Precipitate ([1]; acid concentration 50 mM in solution (2nd component) of Example 5) was 58.8 mg, the Precipitate ([1]; acid concentration 75 mM in solution (2nd component) of Example 5) was 69.1 mg and the Precipitate ([1]; acid concentration 100 mM in solution (2nd component) of Example 5) was 70.8 mg. For the same compound, the Precipitate ([1]; acid concentration 150 mM in solution (2nd component) of Example 5) was 74.2 mg, the Precipitate ([1]; acid concentration 200 mM in solution (2nd component) of Example 5) was 72.3 mg and the melting point was 119 to 120 °C.
